This is an account of results in patent US20240358843A1, “LIGAND-DRUG CONJUGATE AND USE THEREOF” (priority 2021, published 2024).

A short description of data set [1]: Safety evaluation in ICR mice. In kind it is in vivo. Here is the method: Experiment purpose: Safety evaluation of CR194AX in ICR mice
Sample preparation: An appropriate amount of CR194AX was weighed and dissolved in PBS, and an appropriate amount of alkaline solution was added to formulate a sample mother solution with a neutral pH, which was filtered and diluted with filtered PBS to a sample solution with a working concentration for later use.
Experimental design: ICR mice (female, 6-8 weeks old, weighing about 25 g) were randomly grouped according to body weight, and the administration was started on the first day of grouping. The dosage was adjusted according to the latest body weight of the mice, and the administration was performed via tail vein injection at an administration volume of 10 μl/g. After grouping and administration, the effects of the drugs on the normal behaviors of the animals, including the activity, food intake and drinking status, body weight, eyes, hair, feces, secretions and other abnormalities of the experimental animals, were tested. The body weight of the mice was measured twice a week and observed for 8 days after the last administration. At the end of the experiment, the liver and spleen were weighed, and the liver, spleen, lung, kidney and stomach were taken out and placed in 10% formalin neutral fixative for HE analysis. Sample preparation: An appropriate amount of the compound was weighed and dissolved in PBS, and an appropriate amount of alkaline solution was added to formulate a sample mother solution with a neutral pH, which was filtered and diluted with filtered physiological saline to a sample solution with a working concentration for later use.

In data set [2] the test system is SK-BR-3 cells. The data set can be described thus: Cell expansion inhibition assay (CCK-8, 72 h), Table 3. Format: cell-based, human. Particulars: FOLR1 low expression. Here is the method:
(§1) Cell lines: HEK293T-FOLR1 (a stably transformed cell line overexpressing FOLR1), SK-BR-3 (human breast cancer cell) and HEK293T (human embryonic kidney cell).
(§2) Main reagents: 1640 folic acid-free medium, fetal bovine serum, penicillin-streptomycin solution, L-glutamine and CCK8.
(§3) (1) Cell plating: Cells were prepared in advance, digested with Trypsin, collected and counted. A complete cell culture medium was used to dilute HEK293T-FOLR1 and HEK293T cells to 6×10^3 cells/ml, and dilute SK-BR-3 cells to 1.5×10^4 cells/ml. 100 μl of diluted cell solution was added to each well of 96-well plates, and negative and blank control wells were set on each plate. The 96-well plates added with the cells were placed in an incubator at 37° C., 5% CO2 for culturing overnight.
(§4) (2) Diluting and adding samples: The samples were serially diluted with medium (the starting concentration was 30 μM, 5-fold serial dilution), and a total of 10 concentration gradients were set. To each well of the 96-well plates that were cultured overnight, 50 μl of the diluted samples were added, with 3 replicate wells; negative controls and blank controls were set; and the plates were placed in an incubator at 37° C., 5% CO2 for culturing 72 h.
(§5) (3) Color development and reading plate: To each well, 15 μl (10% of the liquid volume in a well) of a color developing solution from CCK-8 was added; the plates were incubated at 37° C. for an appropriate time (try to keep the OD value in the range of 1.0-2.5); the covers of the 96-well plates were removed, and the plates were read at 450 nm on a microplate reader (Molecular Devices SpectraMax iD5).
(§6) (4) Data processing: The data was edited using SoftMax Pro 7.1 and a four-parameter fitting curve was plotted.

The test system of data set [3] is HEK293T-FOLR1 cells. Described as above. In kind it is cell-based, human. Particulars: FOLR1 high expression. Here is the method: as §1, §2, §3, §4, §5, §6
The test system of data set [4] is HEK293T cells. Described as above. The conditions noted are these: no visible FOLR1 expression. In kind it is cell-based, human. Here is the method: as §1, §2, §3, §4, §5, §6
In data set [5] the test system is MIA PaCa2 cells. The data set can be described thus: Cell expansion inhibition assay (CCK-8, 72 h), Table 4. In kind it is cell-based, human. Particulars: without expression of FOLR1, read-out: MIAPACA-2 IC50. The method, then: (§7) Cell lines: HEK293T-FOLR1 (a stably transformed cell line overexpressing FOLR1), SK-BR-3 (human breast cancer cell with low expression of FOLR1) and MIA PaCa2 (human pancreatic cancer cell without expression of FOLR1).
as §2
(§8) (1) Cell plating: Cells were prepared in advance, digested with Trypsin, collected and counted. A complete cell culture medium was used to dilute SK-BR-3 cells to 3.0×10^4 cells/ml, HEK293T-FOLR1 cells to 1.5×10^4 cells/ml, and MIA PaCa-2 cells to 2.0×10^4 cells/ml. 100 μl of diluted cell solution was added to each well of 96-well plates, and negative and blank control wells were set on each plate. The 96-well plates added with the cells were placed in an incubator at 37° C., 5% CO2 for culturing overnight.
as §4, §5, §6

Data set [6] concerns SK-BR-3 cells. Described as above. Format: cell-based, human. The method, then:
as §7, §2, §8, §4, §5, §6

Data set [7] concerns HEK293T-FOLR1 cells. The data set is described as above. In kind it is cell-based, human. The method, then:
as §7, §2, §8, §4, §5, §6

Setting [8] is: 50 mg/kg, qw*3 and q3d*6, tail vein.

Starred links: 1 amine or outer side, 2 acyl side, 3 side chain; linkers in the order of their positions; H or OH if unused. Residues, ends and D or L forms follow the SMILES beside them. *: point of attachment. X1 = CC[C@@]1(O)C(=O)OCc2c1cc1n(c2=O)Cc2c-1nc1cc(F)c(C)c3c1c2[C@@H](NC(=O)CNC(=O)[C@H](Cc1ccccc1)NC(=O)CNC(=O)CNC(=O)CCCCC(=O)*)CC3; Pteroyl = Nc1nc2ncc(CNc3ccc(C(=O)*)cc3)nc2c(=O)[nH]1; γGlu = O=C(O)[C@H](CCC(=O)[*:2])N[*:1]

In the case of `CC[C@@]1(O)C(=O)OCc2c1cc1n(c2=O)Cc2c-1nc1cc(F)c(C)c3c1c2[C@@H](NC(=O)CNC(=O)[C@H](Cc1ccccc1)NC(=O)CNC(=O)CNC(=O)CCCCC(=O)NCCCC[C@H](NC(=O)[C@H](CS)NC(=O)CC[C@H](NC(=O)c1ccc(NCc2cnc4nc(N)nc(O)c4n2)cc1)C(=O)O)C(=O)N[C@@H](CCC(=O)O)C(=O)N[C@@H](Cc1ccccc1)C(=O)N[C@@H](CC(C)C)C(=O)N[C@@H](Cc1c[nH]cn1)C(=O)N1CCC[C@H]1C(=O)N[C@@H](CO)C(=O)N[C@@H](CCCCN)C(=O)N[C@H](C(=O)N[C@@H](CC(=O)O)C(=O)N[C@@H](CC(C)C)C(=O)N1CCC[C@H]1C(=O)N[C@@H](CCCNC(=N)N)C(=O)O)C(C)C)CC3` [CR194AX] ({Pteroyl-γGlu}-CK(X1)EFLHPSKVDLPR-OH), in data set [1] (25 mg/kg q3d*6, tail vein), the “average weight loss of the mice” value is recorded as not above 5%, the “mortality during the administration” value is “no mice died” and the tolerance entry is “good tolerance”. Moreover, in data set [1] (setting [8]), the “average weight loss of the mice” value is not above 10%, the “mortality during the administration period” value is “no mice died” and the tolerance entry was “good tolerance”. Further, the “weights of the liver and spleen compared with the negative control group” value in data set [1] (each administration group, end of experiment) is “no significant difference”.
Take `CC[C@@]1(O)C(=O)OCc2c1cc1n(c2=O)Cc2c-1nc1cc(F)c(C)c3c1c2[C@@H](N)CC3` [Dx]: the IC50 in data set [2] is 0.599 nM; in data set [3], 1.02 nM; in data set [4] it was 1.12 nM; in data set [5], 5.53 nM; in data set [6] it was 0.569 nM; in data set [7], 0.995 nM.
For the compound `CC[C@@]1(O)C(=O)OCc2c1cc1n(c2=O)Cc2c-1nc1cc(F)c(C)c3c1c2[C@@H](NC(=O)CO)CC3` [Dxd], the concentration for half-maximal inhibition (IC50) came to 111 nM in data set [5] and 1.68 nM in data set [7].
On to `CCc1c2c(nc3ccc(O)cc13)-c1cc3c(c(=O)n1C2)COC(=O)[C@]3(O)CC` [SN38], for which the IC50 in data set [5] stood at 7.03 nM; in data set [6] it was 0.947 nM; in data set [7], 0.943 nM.

Usually IC50 stands for the concentration needed to halve the response being measured.
